From US20120245184A1 (Aderans Research Institute, Inc., priority 2006, published 2012)
Counter-ions that a name gives are not always drawn.

What was measured:
C57BL/6 male mice [1] = assay: C57BL/6 hair growth after topical dosing; type: in vivo, mouse; settings: dosed topically once on shaved lower back; visually graded for melanogenesis and hair regrowth
Protocol: (§1) A mouse model of male pattern baldness is used to investigate the effectiveness of the present compounds for growing hair. Agonists for the sonic hedgehog pathway that act by binding and activating Smoothened were tested in a formulation of 50:30:20 PG:EtOH:water or 5:95 DMSO:acetone vehicle. C57BL/6 male mice (48-52 days old on arrival) from Charles River Labs were used on the study. The mice were housed and cared for according to established procedures. Food and water were ad libitum. On Day 0, the mice were shaved on their lower back, an area of ˜1.5 inches×˜2 inches with Wahl clippers using a surgical blade. On day −3, the mice were anesthetized with isoflurane, their back was rinsed with a pad of 70% ethanol, a placebo pellet or a DHT pellet (2.5 mg 21 day pellet) were implanted subcutaneously between the shoulder blades with a 10 gauge trochar. DHT pellet transplantation results in maintenance of existing hair follicles in the resting (telogen) phase. The hole was stapled with a sterile autoclip and the mice were returned to their cage after awaking. The mice were dosed topically once and visually graded daily, except weekends, for melanogenesis and hair regrowth of fur in the dosed area (Table 4).

C57BL/6 male mice [2] = assay: DHT-induced alopecia (mouse model of male pattern baldness); type: in vivo; settings: DHT pellet (2.5 mg 21 day) implanted subcutaneously; dosed topically once; visually graded for melanogenesis and hair regrowth
Protocol: as §1
In the absence of treatment with the present compounds, the follicles remain in telogen rather than following the normal time course of the mouse hair cycle.

sonic hedgehog pathway [3] = assay: Hedgehog reporter assay (gli-luciferase) in TM3 cells; type: cell-based, mouse; settings: TM3 mouse Leydig cells, gli-luciferase reporter; read-out: TM3 Avg. EC50
Procedure, shortened: (§2)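 Stable gli-luciferase reporter lines (mouse TM3; human Daoy and HEPM) switched to 0.5% FBS medium, given compounds at 1-5 μM with or without octyl-modified hedgehog protein (1-5 ng/ml) for 24 hrs. Luminescence read; eleven-point 1:3 dose curves, activation expressed as percentage of plate controls (AMAX).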

sonic hedgehog pathway [4] = assay: Hedgehog reporter assay (gli-luciferase) in S12 cells; type: cell-based; settings: S12 mouse embryonic mesenchymal cells, read-out: S12 Avg. EC50
Text: Mouse (TM3: mouse Leydig cells; S12: mouse embryonic mesenchymal cells) and human (Daoy: human medulloblastoma cell; HepM: human embryonic palatal mesenchymal cell) cell lines are used to screen small molecules for their ability to modulate the activity of the sonic hedgehog pathway (Table 1, Table 2, and Table 3). Stable hedgehog pathway reporter cell lines are established by specific antibiotic selection following transfection of a reporter plasmid containing a luciferase gene located directly downstream from the gli promoter. Consequently, any observable changes in cellular luciferase activity may be attributed to changes in sonic hedgehog pathway activity in mouse and human cells, respectively, since gli is the major by-product of this pathway. To calculate activity, we generate an eleven point dose curve for each compound using 1:3 dilutions in 96 well assay plates. Each plate tested also contains low and high control to establish maximal pathway activation so to establish/compare a percentage activation of each tested compound (AMAX) on respective plates. Also we calculate EC50 values, or a concentration where the pathway will be exactly 50% activated, for each tested compound to determine potency. In these cell lines, compounds that register >20% AMAX values are considered active.
Stable hedgehog pathway reporter cell lines are established following specific antibiotic selection following transfection of a reporter plasmid
In short, typically cells are plated in MicroTiter-plates at 10,000-20,000 cells per well, in growth media (containing 10%-20% FBS). After 48-72 hrs (HGL and DGL respectively) the media in the assay plates is switched to low-serum containing media (0.5% FBS). At that time compounds are added (at 1-5 μM) to the assay plates, in the presence or absence of hedgehog protein (octyl-modified version; 1-5 ng/ml). After another 24 hrs of incubation, the media from the assay plates is discarded and replaced with luciferase assay-mix. Subsequently, plates are incubated at RT for ˜15-30 mins and then read in a luminometer. [note: addition of the Hedgehog protein, although not critical, will sensitize the assay allowing the identification of weak actives].

sonic hedgehog pathway [5] = assay: Human hedgehog reporter assay HEPM-GliLuc (HGL); type: cell-based; settings: HepM human embryonic palatal mesenchymal cells, gli-luciferase reporter; read-out: HEPM Avg. EC50
Procedure, shortened: as §2

sonic hedgehog pathway [6] = assay: Human hedgehog reporter assay Daoy-GliLuc (DGL); type: cell-based; settings: Daoy human medulloblastoma cells, gli-luciferase reporter; read-out: Daoy Avg. EC50
Procedure, shortened: as §2

SMILES	C57BL/6 Hair Growth (C57BL/6 male mice [1])	Androgenetic Alopecia (C57BL/6 male mice [2])	EC50 (sonic hedgehog pathway [3]) [µM]	EC50 (sonic hedgehog pathway [4]) [µM]	EC50 (sonic hedgehog pathway [5]) [µM]	EC50 (sonic hedgehog pathway [6]) [µM]
CN[C@H]1CC[C@H](N(Cc2cc(-c3cc(C)nc(C)c3)ccc2OC)C(=O)c2sc3ccccc3c2Cl)CC1	yes	yes	–	–	–	–
CCOc1ccc(-c2ccc(C)nc2)cc1CN(C(=O)c1sc2ccccc2c1Cl)[C@H]1CC[C@H](NC)CC1	yes	–	–	–	–	–
CN[C@H]1CC[C@H](N(Cc2cc(-c3ccncc3)ccc2OC)C(=O)c2sc3ccccc3c2Cl)CC1	yes	yes	–	–	–	–
CCOc1ccc(-c2ccc(C#N)cc2)cc1CN(C(=O)c1sc2ccccc2c1Cl)[C@H]1CC[C@H](NC)CC1	yes	–	–	–	–	–
CN[C@H]1CC[C@H](N(Cc2cc(-c3ccccc3)ccc2OC)C(=O)c2sc3ccccc3c2Cl)CC1	yes	yes	–	–	–	–
CN[C@H]1CC[C@H](N(Cc2cc(-c3ccc(S(C)(=O)=O)cc3)ccc2OC)C(=O)c2sc3ccccc3c2Cl)CC1	yes	yes	–	–	–	–
CN[C@H]1CC[C@@H](N(Cc2cc(-c3ccc(N(C)C(C)=O)cc3)ccc2OC)C(=O)c2sc3c(C)ccc(C)c3c2C)CC1 [Compound 336, 3-Chloro-4,7-difluoro-benzo[b]thiophene-2-carboxylic acid[4′-(acetyl-methyl-amino)-4-methoxy-biphenyl-3-ylmethyl]-(4-methylamino-cyclohexyl)-amide hydrochloride]	–	–	< 0.05	< 0.05	< 0.05	< 0.05
CNC1CCC(N(Cc2cc(-c3ccccn3)ccc2OC)C(=O)c2sc3c(F)ccc(F)c3c2Cl)CC1 (centres unmarked) [Compound 367, 3-Chloro-4,7-difluoro-benzo[b]thiophene-2-carboxylic acid (2-methoxy-5-pyridin-2-yl-benzyl)-(4-methylamino-cyclohexyl)-amide dihydrochloride]	–	–	< 0.05	< 0.05	< 0.05	< 0.05
CN[C@H]1CC[C@H](N(Cc2cc(-c3ccc(C(N)=O)cc3)ccc2OC)C(=O)c2sc3c(F)ccc(F)c3c2Cl)CC1	yes	yes	–	–	–	–
CN[C@H]1CC[C@H](N(Cc2cc(-c3ccnc(C(=O)OC)c3)ccc2OC)C(=O)c2sc3c(F)ccc(F)c3c2Cl)CC1	yes	yes	–	–	–	–
CN[C@H]1CC[C@H](N(Cc2cc(-c3ccc(N)nc3)ccc2OC)C(=O)c2sc3cccc(F)c3c2Cl)CC1 [drawing 702]	yes	yes	–	–	–	–
CN[C@H]1CC[C@H](N(Cc2cc(-c3ccc(NS(C)(=O)=O)nc3)ccc2OC)C(=O)c2sc3c(F)ccc(F)c3c2Cl)CC1	yes	–	–	–	–	–
CN[C@H]1CC[C@H](N(Cc2cc(-c3ccnc(C(=O)O)c3)ccc2OC)C(=O)c2sc3c(F)ccc(F)c3c2Cl)CC1	no	–	–	–	–	–
CN[C@H]1CC[C@H](N(Cc2cc(-c3ccnc(C(=O)N(C)C)c3)ccc2OC)C(=O)c2sc3c(F)ccc(F)c3c2Cl)CC1	yes	yes	–	–	–	–
CNC1CCC(N(Cc2cc(-c3ccc(C(=O)N(C)C)cc3)ccc2OC)C(=O)c2sc3c(F)ccc(F)c3c2Cl)CC1 (centres unmarked) [Compound 333, 3-Chloro-4,7-difluoro-benzo[b]thiophene-2-carboxylic acid (4′-dimethylcarbamoyl-4-methoxy-biphenyl-3-ylmethyl)-(4-methylamino-cyclohexyl)-amide hydrochloride]	–	–	< 0.05	< 0.05	< 0.05	< 0.05
CN[C@H]1CC[C@H](N(Cc2cc(-c3ccnc(C)c3)ccc2OC)C(=O)c2sc3ccccc3c2Cl)CC1	yes	yes	–	–	–	–
CN[C@H]1CC[C@@H](N(Cc2cc(-c3ccc(S(C)(=O)=O)cc3)ccc2OC)C(=O)C2=C(Cl)c3c(C)ccc(C)c3C2)CC1 [Compound 335, 3-Chloro-4,7-difluoro-benzo[b]thiophene-2-carboxylic acid(4′-methanesulfonyl-4-methoxy-biphenyl-3-ylmethyl)-(4-methylamino-cyclohexyl)-amide hydrochloride]	–	–	< 0.05	< 0.05	< 0.05	< 0.05
